Results from patent US10280170B2, “Substituted 4,5,6,7-tetrahydro-pyrazolo[1,5-a]pyrazine derivatives and 5,6,7,8-tetrahydro-4H-pyrazolo[1,5-a][1,4]diazepine derivatives as Ros1 inhibitors” (Janssen Pharmaceutica NV, priority 2014, dated 2019).

Columns and labels:
Ros1 enzyme = target: T1, Ros1 enzyme (Homo sapiens, UniProt P08922); assay: Ros1 enzymatic assay; format: biochemical; conditions: Ros1 enzymatic assay; read-out: ROS1 pIC50 (converted)
T1 construct: 0.5 μg/ml Ros1 enzyme
How it was run: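 Peptide phosphorylation by Ros1 is measured by 33P transfer from 20 μM ATP (as prepared in substrate mix) over 2 h at ambient temperature, pH 7.5 with Mg2+.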

[1] = target: T2, Ba/F3 cells containing Ros1 wild-type protein (Homo sapiens, UniProt P08922, cells depend on it, form not given); assay: Ba/F3-Ros1 cell proliferation assay, wild-type Ros1; format: cell-based, murine; conditions: without IL-3
T2 construct: The background only speaks of 'a number of different unrelated proteins' and names SLC34A2-ROS1 for HCC78 cells
How it was run: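 Ba/F3 cells expressing wild-type, L2026M or G2032R Ros1, 20000 cells/well in phenol red-free RPMI-1640 with 10% FBS, 2 mM L-glutamine, exposed to compound for 24 h at 37 °C, 5% CO2. Viability read by Alamar Blue (resazurin) fluorescence, ex 540/em 590 nm, after 4 h further incubation.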

[2] = tested on: Ros pY2274 in HCC78 cells; assay: pROS1 immunofluorescence assay in HCC78 cells; format: cell-based; conditions: Homo sapiens, HCC78, 4 h, read-out: HCC78-pRos1 pIC50 (converted)
How it was run: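 HCC78 NSCLC cells treated with compound for 4 h at 37 °C, then fixed and immunostained for ROS1 pY2274 (Alexa Fluor 680, read at 700 nm). Total ROS1 stained in parallel (IRDye800cw, 800 nm) and used to normalize phospho signal.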

[3] = tested on: Ba/F3 tumors containing L2026M mutant Ros1; assay: Efficacy study in mice bearing Ba/F3-Ros1 tumors, L2026M mutant Ros1; format: in vivo, NMRI nude mice; conditions: oral gavage, 10 days
Method: Efficacy Studies in Mice Bearing Ba/F3-Ros1 Tumors
Approximately 2×10^6 Ba/F3 cells containing either wild-type, L2026M or G2032R mutant Ros1 were inoculated into the inguinal region of NMRI nude mice. When the resulting tumors reached a size of 250 to 350 mm^3, mice were randomly assigned to the different treatment groups (8 to 12 mice per group). Compounds formulated in 20% cyclodextrin were administered to the mice by oral gavage at various doses for 10-days once (QD) or twice (BID) a day. Tumor sizes were determined by caliper measurement on day 1 prior to treatment and then twice weekly for the duration of the study using the commonly following formula: tumor volume (mm^3)=(a×b^2/2); where ‘a’ represents the length, and ‘b’ the width of the tumor. Treatment/control (T/C) ratios were calculated at the end of the study based on the change in final relative tumor volumes.

[4] = tested on: HCC78 non-small cell lung cancer cells; assay: HCC78 cell proliferation assay; format: cell-based; conditions: Homo sapiens, HCC78, 96 h, read-out: HCC-78 PROL pEC50 (converted)
How it was run: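 HCC78 NSCLC cells (~1000/well) in RPMI-1640 with 10% FBS were treated 24 h after seeding and exposed to compound for 4 days at 37 °C. Viability was read by MTT, with absorbance at 538 nm after DMSO/glycine solubilization.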

T1 sequence (P08922 28-2347): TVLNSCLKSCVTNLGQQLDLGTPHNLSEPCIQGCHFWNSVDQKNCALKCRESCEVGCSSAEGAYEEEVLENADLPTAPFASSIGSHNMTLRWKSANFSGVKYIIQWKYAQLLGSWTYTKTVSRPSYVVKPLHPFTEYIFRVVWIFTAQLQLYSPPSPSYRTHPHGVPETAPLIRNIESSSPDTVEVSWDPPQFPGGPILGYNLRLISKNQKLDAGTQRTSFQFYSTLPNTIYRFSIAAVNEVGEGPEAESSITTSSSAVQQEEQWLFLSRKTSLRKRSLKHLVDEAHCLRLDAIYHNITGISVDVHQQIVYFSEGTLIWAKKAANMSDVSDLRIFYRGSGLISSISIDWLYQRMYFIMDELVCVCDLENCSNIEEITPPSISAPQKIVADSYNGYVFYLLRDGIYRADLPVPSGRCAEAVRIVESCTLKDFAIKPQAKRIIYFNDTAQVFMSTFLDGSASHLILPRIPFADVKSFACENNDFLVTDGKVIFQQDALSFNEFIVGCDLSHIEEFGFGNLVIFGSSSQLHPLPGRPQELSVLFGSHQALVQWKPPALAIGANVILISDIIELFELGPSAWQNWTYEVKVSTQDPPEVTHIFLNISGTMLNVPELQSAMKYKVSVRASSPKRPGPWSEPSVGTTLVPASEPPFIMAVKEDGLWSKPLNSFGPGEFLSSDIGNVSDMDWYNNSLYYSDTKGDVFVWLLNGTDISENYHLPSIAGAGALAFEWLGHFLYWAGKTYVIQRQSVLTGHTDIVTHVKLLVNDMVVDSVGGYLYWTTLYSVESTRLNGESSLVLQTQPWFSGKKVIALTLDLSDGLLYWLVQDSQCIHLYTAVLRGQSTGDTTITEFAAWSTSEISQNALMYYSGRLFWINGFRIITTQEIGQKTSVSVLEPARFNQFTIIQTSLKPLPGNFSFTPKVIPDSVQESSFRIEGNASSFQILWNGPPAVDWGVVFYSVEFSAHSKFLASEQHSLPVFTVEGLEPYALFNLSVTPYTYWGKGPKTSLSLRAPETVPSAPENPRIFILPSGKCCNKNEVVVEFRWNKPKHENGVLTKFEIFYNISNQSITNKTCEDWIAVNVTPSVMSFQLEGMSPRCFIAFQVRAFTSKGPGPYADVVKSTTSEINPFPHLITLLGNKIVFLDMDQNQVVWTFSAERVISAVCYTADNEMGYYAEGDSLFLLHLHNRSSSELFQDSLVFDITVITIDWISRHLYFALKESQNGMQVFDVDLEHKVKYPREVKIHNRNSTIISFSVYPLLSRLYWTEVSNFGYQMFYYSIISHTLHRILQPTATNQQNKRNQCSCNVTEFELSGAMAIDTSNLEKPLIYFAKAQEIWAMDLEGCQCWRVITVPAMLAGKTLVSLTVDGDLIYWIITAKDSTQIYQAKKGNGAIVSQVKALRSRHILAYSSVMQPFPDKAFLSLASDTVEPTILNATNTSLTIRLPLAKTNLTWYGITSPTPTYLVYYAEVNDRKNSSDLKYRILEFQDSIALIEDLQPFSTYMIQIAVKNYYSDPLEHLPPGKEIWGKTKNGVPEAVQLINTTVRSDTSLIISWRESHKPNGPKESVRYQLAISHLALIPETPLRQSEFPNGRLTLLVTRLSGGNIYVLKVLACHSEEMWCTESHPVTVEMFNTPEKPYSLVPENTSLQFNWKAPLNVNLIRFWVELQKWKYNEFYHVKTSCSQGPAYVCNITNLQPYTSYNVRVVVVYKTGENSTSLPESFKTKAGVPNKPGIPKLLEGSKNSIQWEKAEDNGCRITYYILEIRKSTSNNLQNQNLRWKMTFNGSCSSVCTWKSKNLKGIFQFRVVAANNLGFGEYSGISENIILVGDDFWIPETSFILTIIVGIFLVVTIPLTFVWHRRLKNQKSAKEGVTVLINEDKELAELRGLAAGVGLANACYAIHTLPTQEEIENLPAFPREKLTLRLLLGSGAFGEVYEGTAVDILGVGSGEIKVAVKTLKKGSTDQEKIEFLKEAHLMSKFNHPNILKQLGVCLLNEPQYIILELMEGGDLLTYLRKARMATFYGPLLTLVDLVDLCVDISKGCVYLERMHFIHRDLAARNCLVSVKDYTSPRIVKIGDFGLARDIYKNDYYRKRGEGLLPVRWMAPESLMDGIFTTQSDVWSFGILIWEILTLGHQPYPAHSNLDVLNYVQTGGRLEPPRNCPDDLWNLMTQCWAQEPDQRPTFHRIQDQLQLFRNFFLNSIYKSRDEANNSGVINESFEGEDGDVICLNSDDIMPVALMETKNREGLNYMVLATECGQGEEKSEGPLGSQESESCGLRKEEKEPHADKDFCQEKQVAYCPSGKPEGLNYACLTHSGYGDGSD
T2 sequence (P08922 whole entry, stated change not applied): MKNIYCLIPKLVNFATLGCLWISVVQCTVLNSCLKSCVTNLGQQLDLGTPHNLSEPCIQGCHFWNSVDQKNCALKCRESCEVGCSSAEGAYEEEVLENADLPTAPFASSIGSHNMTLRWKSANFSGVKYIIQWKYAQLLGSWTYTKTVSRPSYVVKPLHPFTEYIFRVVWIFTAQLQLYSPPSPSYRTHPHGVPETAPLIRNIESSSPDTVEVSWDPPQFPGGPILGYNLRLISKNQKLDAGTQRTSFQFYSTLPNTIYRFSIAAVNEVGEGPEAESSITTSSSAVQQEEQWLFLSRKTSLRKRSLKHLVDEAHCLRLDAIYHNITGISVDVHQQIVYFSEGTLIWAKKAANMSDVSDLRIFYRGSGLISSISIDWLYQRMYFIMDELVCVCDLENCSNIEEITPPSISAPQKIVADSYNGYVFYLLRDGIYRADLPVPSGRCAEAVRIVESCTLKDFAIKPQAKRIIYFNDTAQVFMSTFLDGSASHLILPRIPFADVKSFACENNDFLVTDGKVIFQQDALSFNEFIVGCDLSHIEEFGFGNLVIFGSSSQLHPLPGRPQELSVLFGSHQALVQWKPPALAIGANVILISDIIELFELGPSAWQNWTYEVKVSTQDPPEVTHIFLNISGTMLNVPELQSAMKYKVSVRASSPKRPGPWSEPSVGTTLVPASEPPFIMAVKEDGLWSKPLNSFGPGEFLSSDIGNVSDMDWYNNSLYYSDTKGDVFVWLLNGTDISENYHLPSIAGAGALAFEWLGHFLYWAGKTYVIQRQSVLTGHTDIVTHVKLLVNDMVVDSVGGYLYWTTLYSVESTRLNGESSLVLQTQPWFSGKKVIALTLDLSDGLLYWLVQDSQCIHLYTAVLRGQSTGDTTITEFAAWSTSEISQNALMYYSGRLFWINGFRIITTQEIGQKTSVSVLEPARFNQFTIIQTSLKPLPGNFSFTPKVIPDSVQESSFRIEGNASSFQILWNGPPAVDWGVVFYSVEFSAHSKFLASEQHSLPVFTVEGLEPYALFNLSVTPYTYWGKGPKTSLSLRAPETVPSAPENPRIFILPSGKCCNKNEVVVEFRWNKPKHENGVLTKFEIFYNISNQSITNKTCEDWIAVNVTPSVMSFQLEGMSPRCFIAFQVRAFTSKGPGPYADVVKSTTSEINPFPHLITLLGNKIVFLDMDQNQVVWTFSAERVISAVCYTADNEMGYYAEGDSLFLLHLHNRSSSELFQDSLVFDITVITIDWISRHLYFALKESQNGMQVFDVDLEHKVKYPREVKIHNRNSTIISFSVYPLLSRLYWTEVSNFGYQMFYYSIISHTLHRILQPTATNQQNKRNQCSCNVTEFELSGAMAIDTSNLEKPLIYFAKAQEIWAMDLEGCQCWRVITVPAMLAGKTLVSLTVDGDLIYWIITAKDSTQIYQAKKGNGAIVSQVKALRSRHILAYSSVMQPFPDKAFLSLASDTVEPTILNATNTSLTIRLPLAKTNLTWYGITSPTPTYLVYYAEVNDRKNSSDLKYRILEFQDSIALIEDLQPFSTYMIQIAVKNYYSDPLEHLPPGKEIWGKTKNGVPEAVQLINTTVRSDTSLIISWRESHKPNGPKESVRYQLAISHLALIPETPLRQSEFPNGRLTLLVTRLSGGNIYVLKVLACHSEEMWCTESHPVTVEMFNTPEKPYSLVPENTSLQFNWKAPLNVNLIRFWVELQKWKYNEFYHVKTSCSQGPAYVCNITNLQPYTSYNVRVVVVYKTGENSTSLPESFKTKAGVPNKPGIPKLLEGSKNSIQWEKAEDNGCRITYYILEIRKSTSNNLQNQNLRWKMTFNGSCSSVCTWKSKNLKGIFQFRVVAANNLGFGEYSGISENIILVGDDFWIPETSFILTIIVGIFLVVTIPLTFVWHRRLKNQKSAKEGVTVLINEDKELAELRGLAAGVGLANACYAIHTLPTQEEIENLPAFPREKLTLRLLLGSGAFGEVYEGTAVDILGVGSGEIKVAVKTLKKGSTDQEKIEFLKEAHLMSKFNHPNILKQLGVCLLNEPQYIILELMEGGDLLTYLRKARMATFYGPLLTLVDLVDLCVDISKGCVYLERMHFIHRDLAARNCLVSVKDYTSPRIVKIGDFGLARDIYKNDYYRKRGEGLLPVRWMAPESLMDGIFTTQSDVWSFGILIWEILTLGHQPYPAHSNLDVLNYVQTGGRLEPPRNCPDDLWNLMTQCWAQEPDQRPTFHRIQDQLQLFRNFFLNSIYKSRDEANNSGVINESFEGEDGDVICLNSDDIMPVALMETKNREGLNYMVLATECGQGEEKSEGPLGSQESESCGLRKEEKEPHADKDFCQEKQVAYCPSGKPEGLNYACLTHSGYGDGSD

| Structure (SMILES) | IC50 (Ros1 enzyme) [nM] | BaF3-ROS1-IL3 pIC50 [1] | IC50 [2] [nM] | T/C (%) ([3]; 6.25 mg/kg BID) | T/C (%) ([3]; 12.5 mg/kg BID) | T/C (%) ([3]; 25 mg/kg QD) | EC50 [4] [nM] | T/C (%) ([3]; 25 mg/kg BID) | T/C (%) ([3]; 50 mg/kg BID) | T/C (%) ([3]; 100 mg/kg BID) |
| --- | --- | --- | --- | --- | --- | --- | --- | --- | --- | --- |
| CC(C)c1ccc(COc2ccc(-c3c(-c4ccncc4)nn4c3C(=O)NCC4)cc2)cc1 [Compound 1] | 25.1 | 7.6 | 25.1 | 94 | 23 | 42 | 126 |  |  |  |
| CC(C)c1ccc(COc2ccc(-c3c(-c4ccncc4)nn4c3C(=O)N(CCO)CC4)cc2)cc1 [Compound 2] | 20 | 7.6 | 25.1 |  | 82 |  | 126 | 50 | 28 | −32 |
